Common to all, as to assay: inhibition of tumour cell growth, NCI panel, 48 h
The subject of test [1] is KM12 colon.
The test system of test [2] is SK-MEL-28 melanoma.
Test [3] relates to EKVX NSCLC.
The subject of test [4] is UO-31 renal.
Test [5] relates to U251 CNS.
In test [6] the test system is HT29 colon.
Test [7] concerns SNB-75 CNS.
Test [8] has as its system COLO 205 colon.
Test [9] has as its system ACHN renal.
The subject of test [10] is T-47D breast.

Values joined by “and” are separate entries in the source; they are usually repeats but may differ in a detail not shown here. Identical values can stand only once.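 48-hour exposure; five concentrations; linearly interpolated endpoints. At the GI50, growth is halved. TGI marks complete inhibition of growth.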

Take `Cc1ccc(S(=O)(=O)OC(COC(=O)c2ccccc2)C(OS(=O)(=O)c2ccc(C)cc2)C(OS(=O)(=O)c2ccc(C)cc2)C(COC(=O)c2ccccc2)OS(=O)(=O)c2ccc(C)cc2)cc1` (stereo not drawn): the TGI in [1], in [2], in test [3], in test [4], in test [5] and in [6] was over 100 µM throughout. In addition, the TGI in [7] was 90 µM; in test [8], over 100 µM; in test [9], over 100 µM.

As for `COc1cc(C(C)c2cc3c(cc2OCCNC(=O)COc2cc4c(cc2C(C)c2cc(OC)c(OC)c(OC)c2)OCO4)OCO3)cc(OC)c1OC` (stereo not drawn), the TGI in [1], in test [2], in [3], in test [4], in test [5] and in test [6] was over 100 µM each time. Besides, the TGI in test [7], in test [8] and in test [9] was over 100 µM throughout.

In the case of `C=C1C(=O)O[C@H]2[C@H]1CC/C(Cn1cc(-c3ccc(F)cc3)nn1)=C\CC[C@@]1(C)O[C@@H]21`, the GI50 in test [1] is 1.7 µM; in test [2] it was 0.822 µM; in test [3] it was 1.49 µM; in [4] it was 1.22 µM; in test [5], 2.02 µM; in test [6], 0.695 µM. Moreover, the values for the GI50 in [7], in test [8] and in test [9] were 1.25 µM, 0.459 µM and 0.182 µM, respectively. Besides, the TGI in test [1] turned out to be 3.43 µM; in test [2] it was 2.21 µM; in [3] it was 2.97 µM; in [4], 2.51 µM; in test [5] it was 4.43 µM; in [6], 2.15 µM. Further, the TGI was determined as 2.5 µM in [7], 1.67 µM in test [8] and 0.445 µM in test [9].

For `CCOC(=O)C(Cc1ccccc1)NC(=O)c1[nH]cnc1/N=N/N(C)C` (stereo not drawn), the TGI in [1], in test [2], in test [3], in test [4], in [5] and in [6] was over 100 µM in each case. The TGI in test [7], in [8] and in test [9] was over 100 µM each time.

Turning to `O=C1CNC(=O)c2[nH]cnc2N1`, the TGI in [1], in [2], in test [3], in test [4], in test [5] and in [6] was over 100 µM throughout. The TGI in [7], in [8] and in test [9] was over 100 µM throughout.

As for `CC1=NOC(=O)/C1=C/c1ccc([N+](=O)[O-])cc1`, the TGI in test [1], in test [2], in [3], in test [4], in test [5] and in test [6] was over 100 µM in each case. Further, the TGI in [7], in test [8] and in test [9] was over 100 µM each time.

`COC(=O)C(CC(=O)Nc1ccc(Cl)c(Cl)c1)C(=O)C(=O)Nc1ccc(Cl)c(Cl)c1` (stereo not drawn): the TGI in [1], in [2], in test [3], in test [4], in test [5] and in test [6] was over 100 µM each time. The TGI in test [7], in test [8] and in test [9] was over 100 µM throughout.

With `COc1ccc(C(=O)CC2=Nc3nnc(CCCCCCCc4nnc5n4C(=O)C(CC(=O)c4ccc(OC)cc4)=N5)n3C2=O)cc1`, the TGI in test [1], in test [2], in test [3], in test [4], in [5] and in test [6] was over 100 µM each time. In addition, the TGI in test [7], in test [8] and in test [9] was over 100 µM each time.

For the compound `O=S(=O)(N=NC=C1c2ccccc2N(O)c2ccccc21)c1ccc(Cl)cc1`, the TGI in [1], in [2], in test [3], in test [4], in [5] and in test [6] was over 100 µM in each case. Moreover, the TGI was 78.2 µM in [7], over 100 µM in test [8] and over 100 µM in test [9].

With `Cc1nc(N)nc(N)c1CCCc1ccccc1`, the TGI in test [1] is over 100 µM; in test [2] it was 86.1 µM; in test [3], over 100 µM; in [4] it was over 100 µM; in [5], over 100 µM; in [6], over 100 µM. In addition, the TGI in [7], in test [8] and in [9] was over 100 µM each time.

Take `CC(=O)NNc1nc(C)c(C(=O)/C=C/c2ccc(Cl)cc2)s1`: the TGI in test [1], in test [2], in [3], in [4], in [5] and in test [6] was over 100 µM throughout. Also, the TGI in test [7], in test [8] and in test [9] was over 100 µM throughout.

As for `CCOC(=O)C(=CNC(=S)N=Nc1c(O)[nH]c2ccccc12)C(=O)OCC`, the TGI in [1], in [2], in [4], in test [5], in test [6] and in test [10] was over 100 µM throughout. The TGI in test [7], in test [8] and in test [9] was over 100 µM throughout.

Consider `Cc1ccc(NC(=O)/C(Cc2cc(=O)oc3cc(O)ccc23)=N\NC(C)(C)C)cc1C`, for which the TGI in test [1], in [2], in test [4], in test [5], in test [6] and in test [10] was over 100 µM throughout. Further, the TGI in test [8] and in [9] was over 100 µM in each case.

With `CCn1c2c(c3ccccc31)[C@@H](c1ccc(Cl)cc1)CC1C(=O)N(c3ccccc3)C(=O)C21` (stereo partly drawn), the TGI in test [1], in [2], in test [3], in test [4], in test [5] and in test [6] was over 100 µM throughout. Besides, the TGI in [7], in test [8] and in test [9] was over 100 µM each time.

For `CCCCc1c2cnccc2c(CCCC)c2c1[nH]c1ccccc12`, the TGI in test [1] came to 24.7 µM; in test [2], 21.7 µM; in [3] it was 36 µM; in test [4], 29.8 µM; in test [5], 27 µM; in test [6] it was 29 µM. Also, the TGI in test [7] stood at 23.6 µM; in [8], 27.4 µM; in test [9], 30.6 µM.

Consider `CO[C@H]1C[C@](C)(O)Cc2cc3c(c(O)c21)C(=O)c1c(O)cc2c(c1C3=O)O[C@@H]1O[C@@]2(C)[C@H](O)[C@@H](N(C)C)[C@@H]1O`, for which the GI50 is 1.39 µM in [1]; 1.62 µM in test [2]; 2.4 µM in test [3]; 1.33 µM in test [4]; 0.461 µM in test [5]; 1.56 µM in test [6]. The GI50 in [8] was 1.46 µM; in test [9], 0.107 µM. Moreover, the TGI in [1] was 3.18 µM and 11.4 µM; in test [2], 3.35 µM and 19.4 µM; in test [3] it was 6.5 µM and 13 µM; in test [4], 2.85 µM and 7.08 µM; in test [5], 1.58 µM and 2.48 µM; in test [6], 5.79 µM and 15.6 µM. The TGI in test [10] was 17.4 µM; in test [8] it was 2.97 µM and 8.57 µM; in test [9] it was 1.31 µM and 1.9 µM.

Turning to `CCCN(CCC)C(=O)c1nc(N)nc(-c2ccc(OC)cc2)c1-c1ccc(OC)cc1`, the TGI in test [1], in [2], in [3], in [4], in [5] and in [6] was over 100 µM in each case. Besides, the TGI in [7], in test [8] and in test [9] was over 100 µM in each case.

As for `CC(C(=O)c1ccccc1)C1(O)C(=O)Nc2ccc(Cl)cc21` (stereo not drawn), the TGI in test [1] is over 100 µM; in test [2], over 100 µM; in test [3], over 100 µM; in [4] it was 89.7 µM; in test [5], over 100 µM; in [6] it was over 100 µM. Also, the TGI in test [7], in [8] and in test [9] was over 100 µM each time.

In the case of `O=C(Nc1ccccc1-c1nn(CN2CCNCC2)c(=S)n(CN2CCNCC2)c1=O)C(F)(F)F`, the TGI in test [1] was 40.7 µM; in test [2] it was 33.2 µM; in test [3], 32.2 µM; in test [4], 32.6 µM; in test [5] it was 31.7 µM; in [6] it was 57.5 µM. For the same compound, the figures for the TGI in test [7], in test [8] and in test [9] were 52.9 µM, 31 µM and 63.9 µM, respectively.

As for `N/N=C(\c1nc2ccc(Cl)cc2[nH]c1=O)C(O)c1ccc(Cl)c(Cl)c1` (stereo not drawn), the TGI in test [1], in test [2], in test [3], in test [4], in test [5] and in test [6] was over 100 µM in each case. Besides, the TGI in test [7], in [8] and in test [9] was over 100 µM in each case.

As for `CC(=O)OC12c3ccccc3-c3ccccc3C1C(C(=O)O)C2C(=O)O` (stereo not drawn), the TGI in [1], in test [2], in [3], in [4], in test [5] and in test [6] was over 10 µM each time. Further, the TGI in [10], in [8] and in test [9] was over 10 µM each time.

Turning to `COC(=O)[C@@H](C)[C@H]1CC[C@@](C)(CCC2=C(C)CC3C=C(C)CCC3C2(C)C)OO1` (stereo partly drawn), the TGI was determined as 2.9 µM in [1]; 3.22 µM in test [2]; 3.03 µM in test [3]; 2.76 µM in test [4]; 2.73 µM in test [5]; 2.96 µM in test [6]. Moreover, the TGI in test [7] is 2.94 µM; in [8], 4.38 µM; in [9] it was 2.87 µM.

With `C1CN(P2(N3CC3)=NP(N3CC3)(N3CC3)=NP(N3CC3)(N3CC3)=N2)CCO1` (stereo not drawn), the TGI in [1], in [2], in test [3], in [4], in test [5] and in test [6] was over 100 µM throughout. Besides, the TGI in test [7], in test [8] and in [9] was over 100 µM in each case.

For the compound `N#C/C(=N\Nc1ccccc1)C(=O)Nc1cc(-c2ccccc2)nn1-c1ccccc1`, the GI50 in test [1] is 2.97 µM; in test [2], 3.78 µM; in test [3] it was 2.93 µM; in test [4] it was 2.58 µM; in test [5], 3.14 µM; in [6], 3.2 µM. Further, the GI50 in test [10] was 2.03 µM; in test [8], 2.17 µM; in test [9] it was 2.98 µM. In addition, the TGI was over 100 µM in test [1]; over 100 µM in test [2]; over 100 µM in test [3]; over 100 µM in test [4]; 16 µM in test [5]; 17.3 µM in test [6]. For the same compound, the TGI is 8.11 µM in test [10], 4.77 µM in test [8] and over 100 µM in [9].

In the case of `CCCCCC[C@@H](C)NC(=O)c1ccc(Nc2nc3ccccc3c3occc23)cc1`, the GI50 in [1] is 38 µM; in [2], 5.5 µM; in test [3], 1.52 µM; in test [4], 2.87 µM; in [5], 38.8 µM; in [6] it was 2.81 µM. Moreover, the GI50 in test [7] is 2.25 µM; in test [8], 3.08 µM; in [9], 24.8 µM. Besides, the TGI is over 100 µM in [1]; over 100 µM in test [2]; 5.04 µM in [3]; 21 µM in test [4]; over 100 µM in test [5]; over 100 µM in [6]. The TGI in test [7] is 6.38 µM; in test [9], 91.7 µM.

These data come from PubChem BioAssay (NCI).
